The record followed here is patent US20100040706A1, “METHOD OF ANTI-AGEING COSMETIC CARE BY STIMULATION OF SURVIVIN EXPRESSION” (LVMH RECHERCHE, priority 2008, published 2010).

The test system of the assay is survivin. The assay can be described thus: Survivin ELISA assay on normal human keratinocyte cultures, related to total proteins (BCA). The class given is cell-based. The note with it: forskolin 4 μg/ml (10 μM). As for the experimental part:
The normal human keratinocytes are cultured in 75 cm^2 flasks, in an incubator at 37° C. under a humid atmosphere containing 5% CO2, in serum-free keratinocyte medium supplemented with EGF (Epidermal Growth Factor) and with BPE (Bovine Pituitary Extract) (KSFMc) (Gibco ref: 17005-034+37000-015). The cells are seeded (day D0) into 48-well microplates in a proportion of 50 000 cells in 500 μL of medium per well. After incubation for 24 hours (day D1), the cells have become adherent and the treatment step is then carried out. The seeding medium is removed and the treatment medium containing the ingredients to be evaluated at the various concentrations, or the excipient thereof (for example DMSO) in the same proportion, is then added to each culture well. A peak of survivin expression by the cells is observed after treatment for 16 hours. The wells are then rinsed with PBS. Half the wells of the microplate are used to lyse the keratinocytes and to assay the intracellular survivin. […] The total proteins are assayed using a BCA colorimetric test (reference: BC Assay Kit, Uptima Interchim), by measuring absorbance at 570 nm. […] After the enzyme reaction has been blocked with sulfuric acid, the survivin is quantified by measuring absorbance at 450 nm.

Take `C=C[C@@]1(C)CC(=O)[C@]2(O)[C@@]3(C)[C@@H](O)CCC(C)(C)[C@@H]3[C@H](O)[C@H](OC(C)=O)[C@@]2(C)O1` [Forskolin, forskolin]: the “% activation” value (16 h, solvent control = 100%) amounted to 147.9%. Besides, the Survivin (16 h treatment, normal human keratinocytes) amounted to 7.27 pg/mg proteins.
